What was measured:
recombinant human MER = target: T1, recombinant human MER (Homo sapiens, UniProt Q12866); test: HTRF KinEASE-TK biochemical potency, MER; details: 1 nM MER, 700 μM ATP
T1 construct: purchased Invitrogen
T1 sequence (Q12866 21-999): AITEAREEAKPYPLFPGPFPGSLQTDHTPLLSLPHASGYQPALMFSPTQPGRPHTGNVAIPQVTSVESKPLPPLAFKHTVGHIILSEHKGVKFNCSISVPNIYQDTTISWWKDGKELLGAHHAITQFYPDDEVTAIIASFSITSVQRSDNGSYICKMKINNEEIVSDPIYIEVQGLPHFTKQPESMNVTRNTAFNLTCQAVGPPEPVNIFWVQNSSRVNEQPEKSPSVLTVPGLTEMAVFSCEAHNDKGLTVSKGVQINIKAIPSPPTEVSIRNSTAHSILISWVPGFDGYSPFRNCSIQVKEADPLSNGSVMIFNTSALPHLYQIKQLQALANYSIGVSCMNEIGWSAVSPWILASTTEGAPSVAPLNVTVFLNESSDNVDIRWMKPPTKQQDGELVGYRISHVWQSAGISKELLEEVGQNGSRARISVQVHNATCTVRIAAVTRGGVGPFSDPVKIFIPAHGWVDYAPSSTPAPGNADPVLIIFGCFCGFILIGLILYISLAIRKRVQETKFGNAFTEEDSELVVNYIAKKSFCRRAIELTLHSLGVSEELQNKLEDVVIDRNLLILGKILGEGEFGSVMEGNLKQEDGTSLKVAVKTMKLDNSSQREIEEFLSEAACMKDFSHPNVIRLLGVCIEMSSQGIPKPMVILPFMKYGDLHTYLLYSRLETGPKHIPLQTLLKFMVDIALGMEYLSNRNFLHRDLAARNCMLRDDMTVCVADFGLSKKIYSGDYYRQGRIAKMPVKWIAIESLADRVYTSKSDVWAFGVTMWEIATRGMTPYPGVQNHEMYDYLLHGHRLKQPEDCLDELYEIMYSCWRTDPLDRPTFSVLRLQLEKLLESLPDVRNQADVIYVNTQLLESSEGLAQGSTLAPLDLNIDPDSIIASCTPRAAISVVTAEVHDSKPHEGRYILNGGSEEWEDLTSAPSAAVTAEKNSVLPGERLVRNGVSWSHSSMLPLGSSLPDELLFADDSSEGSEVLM
Summary of the method: (§1)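 Enzyme preincubated with compound 1 h at RT; final 5 nM AXL or 1 nM TYRO3/MER, 800 nM TK substrate-biotin, 700 μM ATP, HEPES pH 7.4, MgCl2, 1% DMSO, 2 h at RT. HTRF 665/620 ratio read after streptavidin-XL665/cryptate antibody detection; percent activity relative to DMSO and pre-stopped controls.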

Axl = target: T2, Axl (Homo sapiens, UniProt P30530); test: HTRF KinEASE-TK biochemical potency, AXL; design: purchased Invitrogen; details: 5 nM AXL, 700 μM ATP
T2 sequence (P30530 26-894): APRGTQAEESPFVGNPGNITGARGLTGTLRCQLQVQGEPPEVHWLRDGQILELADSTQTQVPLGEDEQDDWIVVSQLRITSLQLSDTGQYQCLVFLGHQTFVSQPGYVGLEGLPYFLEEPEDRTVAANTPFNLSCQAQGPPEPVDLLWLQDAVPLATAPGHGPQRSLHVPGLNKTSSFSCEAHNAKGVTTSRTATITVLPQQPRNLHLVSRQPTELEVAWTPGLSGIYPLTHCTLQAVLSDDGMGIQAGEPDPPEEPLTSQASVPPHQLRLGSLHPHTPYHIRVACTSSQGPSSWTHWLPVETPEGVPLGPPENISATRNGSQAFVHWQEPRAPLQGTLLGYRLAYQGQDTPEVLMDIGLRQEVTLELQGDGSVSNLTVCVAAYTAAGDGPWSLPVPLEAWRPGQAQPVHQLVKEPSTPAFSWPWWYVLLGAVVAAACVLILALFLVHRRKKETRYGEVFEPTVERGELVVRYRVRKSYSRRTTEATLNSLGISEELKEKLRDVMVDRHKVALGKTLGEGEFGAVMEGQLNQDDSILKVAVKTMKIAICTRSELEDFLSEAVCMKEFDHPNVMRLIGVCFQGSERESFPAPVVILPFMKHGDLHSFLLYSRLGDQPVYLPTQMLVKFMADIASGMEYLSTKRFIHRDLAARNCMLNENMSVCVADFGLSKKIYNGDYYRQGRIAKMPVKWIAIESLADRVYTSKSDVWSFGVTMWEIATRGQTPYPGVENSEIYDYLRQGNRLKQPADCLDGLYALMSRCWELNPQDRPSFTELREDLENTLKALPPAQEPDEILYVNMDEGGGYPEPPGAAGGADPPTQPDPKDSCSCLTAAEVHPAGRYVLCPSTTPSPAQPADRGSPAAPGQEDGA
Summary of the method: as §1

Compound	IC50 (recombinant human MER) [nM]	IC50 (Axl) [nM]
O=C1NCCOc2cc(-c3n[nH]c4ncc(-c5ccc6c(c5)CCN(C5COC5)CC6)cc34)ccc21 [Example 11, 8-(5-(3-(Oxetan-3-yl)-2,3,4,5-tetrahydro-1H-benzo[d]azepin-7-yl)-1H-pyrazolo[3,4-b]pyridin-3-yl)-3,4-dihydrobenzo[f][1,4]oxazepin-5(2H)-one]	< 100	< 100
O=C1NCCOc2cc(-c3n[nH]c4ncc(-c5ccc6c(c5)CCN(C5CC5)C6)cc34)ccc21 [Example 21, 8-(5-(2-Cyclopropyl-1,2,3,4-tetrahydroisoquinolin-6-yl)-1H-pyrazolo[3,4-b]pyridin-3-yl)-3,4-dihydrobenzo[f][1,4]oxazepin-5(2H)-one]	100 to 1000	< 100
C[C@@H]1CCCN1C1CCc2ccc(-c3cnc4[nH]nc(-c5cc(F)c6c(c5)OCCNC6=O)c4c3)cc2CC1 (stereo partly drawn) [Example 6, 6-Fluoro-8-(5-{7-[(2R)-2-methylpyrrolidin-1-yl]-6,7,8,9-tetrahydro-5H-benzo[7]annulen-2-yl}-1H-pyrazolo[3,4-b]pyridin-3-yl)-2,3,4,5-tetrahydro-1,4-benzoxazepin-5-one]	< 100	< 100
COCCN1CCc2cc(-c3cnc4[nH]nc(-c5ccc6c(c5)OCCNC6=O)c4c3)ccc2C1 [Example 13, 8-(5-(2-(2-Methoxyethyl)-1,2,3,4-tetrahydroisoquinolin-6-yl)-1H-pyrazolo[3,4-b]pyridin-3-yl)-3,4-dihydrobenzo[f][1,4]oxazepin-5(2H)-one]	100 to 1000	< 100
O=C1NCCOc2cc(-c3n[nH]c4ncc(-c5ccc6c(c5)CCN(C5COC5)C6)cc34)ccc21 [Example 12, 8-(5-(2-(Oxetan-3-yl)-1,2,3,4-tetrahydroisoquinolin-6-yl)-1H-pyrazolo[3,4-b]pyridin-3-yl)-3,4-dihydrobenzo[f][1,4]oxazepin-5(2H)-one]	100 to 1000	< 100
O=C1NCCOc2cc(-c3n[nH]c4ncc(-c5ccc6c(c5)CCC(N5CCC[C@H]5CO)CC6)cc34)ccc21 (stereo partly drawn) [Example 50, 8-(5-{7-[(2S)-2-(Hydroxymethyl)pyrrolidin-1-yl]-6,7,8,9-tetrahydro-5H-benzo[7]annulen-2-yl}-1H-pyrazolo[3,4-b]pyridin-3-yl)-2,3,4,5-tetrahydro-1,4-benzoxazepin-5-one]	< 100	< 100
Cc1cc2c(cc1-c1cnc3[nH]nc(-c4ccc5c(c4)OCCNC5=O)c3c1)CCC(N1CCC[C@H]1C)CC2 (stereo partly drawn) [Example 64, 8-(5-{3-Methyl-7-[(2R)-2-methylpyrrolidin-1-yl]-6,7,8,9-tetrahydro-5H-benzo[7]annulen-2-yl}-1H-pyrazolo[3,4-b]pyridin-3-yl)-2,3,4,5-tetrahydro-1,4-benzoxazepin-5-one]	< 100	< 100
O=C1NCCOc2cc(-c3n[nH]c4ncc(-c5ccc6c(c5)CCC(N5CCCC5)C6)cc34)ccc21 (stereo not shown) [Example 2, 8-{5-[6-(Pyrrolidin-1-yl)-5,6,7,8-tetrahydronaphthalen-2-yl]-1H-pyrazolo[3,4-b]pyridin-3-yl}-2,3,4,5-tetrahydro-1,4-benzoxazepin-5-one]	< 100	< 100
C[C@@H]1CCCN1C1CCc2ccc(-c3cnc4[nH]nc(-c5ccc6c(c5)OCCC6(C)O)c4c3)cc2CC1 (stereo partly drawn) [Example 29, 4-Methyl-7-(5-{7-[(2R)-2-Methylpyrrolidin-1-yl]-6,7,8,9-tetrahydro-5H-benzo[7]annulen-2-yl}-1H-pyrazolo[3,4-b]pyridin-3-yl)-3,4-dihydro-2H-1-benzopyran-4-ol]	100 to 1000	< 100
C[C@@H]1CCCN1C1CCc2ccc(-c3cnc4[nH]nc(-c5ccc6c(c5)OCC5(CCC5)NC6=O)c4c3)cc2CC1 (stereo partly drawn) [Example 37, 8-(5-{7-[(2R)-2-Methylpyrrolidin-1-yl]-6,7,8,9-tetrahydro-5H-benzo[7]annulen-2-yl}-1H-pyrazolo[3,4-b]pyridin-3-yl)-4,5-dihydro-2H-spiro[1,4-benzoxazepine-3,1′-cyclobutan]-5-one]	< 100	< 100
CC[C@@H]1CCCN1C1CCc2ccc(-c3cnc4[nH]nc(-c5ccc6c(c5)OCCNC6=O)c4c3)cc2CC1 (stereo partly drawn) [Example 25, 8-(5-{7-[(2R)-2-Ethylpyrrolidin-1-yl]-6,7,8,9-tetrahydro-5H-benzo[7]annulen-2-yl}-1H-pyrazolo[3,4-b]pyridin-3-yl)-2,3,4,5-tetrahydro-1,4-benzoxazepin-5-one]	< 100	< 100
C[C@H]1CCCN1C1CCc2ccc(-c3cnc4[nH]nc(-c5ccc6c(c5)OCCNC6=O)c4c3)cc2CC1 (stereo partly drawn) [Example 43, 8-(5-{7-[(2S)-2-Methylpyrrolidin-1-yl]-6,7,8,9-tetrahydro-5H-benzo[7]annulen-2-yl}-1H-pyrazolo[3,4-b]pyridin-3-yl)-2,3,4,5-tetrahydro-1,4-benzoxazepin-5-one]	< 100	< 100
CC(C)(O)C(=O)N1CCc2ccc(-c3cnc4[nH]nc(-c5ccc6c(c5)OCCNC6=O)c4c3)cc2CC1 [Example 19, 8-(5-(3-(2-Hydroxy-2-methylpropanoyl)-2,3,4,5-tetrahydro-1H-benzo[d]azepin-7-yl)-1H-pyrazolo[3,4-b]pyridin-3-yl)-3,4-dihydrobenzo[f][1,4]oxazepin-5(2H)-one]	100 to 1000	< 100
O=C1NCCOc2cc(-c3n[nH]c4ncc(-c5ccc6c(c5)CC(N5CCCC5)CC6)cc34)ccc21 (stereo not shown) [Example 3, 8-{5-[7-(Pyrrolidin-1-yl)-5,6,7,8-tetrahydronaphthalen-2-yl]-1H-pyrazolo[3,4-b]pyridin-3-yl}-2,3,4,5-tetrahydro-1,4-benzoxazepin-5-one]	< 100	< 100
O=C1NCCOc2cc(-c3n[nH]c4ncc(-c5ccc6c(c5)CCC(N[C@@H]5CCOC5)C6)cc34)ccc21 (stereo partly drawn) [Example 5, 8-[5-(6-{[(3R)—Oxolan-3-yl]amino}-5,6,7,8-tetrahydronaphthalen-2-yl)-1H-pyrazolo[3,4-b]pyridin-3-yl]-2,3,4,5-tetrahydro-1,4-benzoxazepin-5-one]	< 100	< 100
C[C@H]1CCCN1C1(C)CCc2ccc(-c3cnc4[nH]nc(-c5ccc6c(c5)OCCNC6=O)c4c3)cc2CC1 (stereo partly drawn) [Example 24, 8-(5-{7-Methyl-7-[(2S)-2-methylpyrrolidin-1-yl]-6,7,8,9-tetrahydro-5H-benzo[7]annulen-2-yl}-1H-pyrazolo[3,4-b]pyridin-3-yl)-2,3,4,5-tetrahydro-1,4-benzoxazepin-5-one]	< 100	< 100
Cc1c(-c2n[nH]c3ncc(-c4ccc5c(c4)CCC(N4CCC[C@H]4C)CC5)cc23)ccc2c1OCCNC2=O (stereo partly drawn) [Example 41, 9-Methyl-8-(5-{7-[(2R)-2-methylpyrrolidin-1-yl]-6,7,8,9-tetrahydro-5H-benzo[7]annulen-2-yl}-1H-pyrazolo[3,4-b]pyridin-3-yl)-2,3,4,5-tetrahydro-1,4-benzoxazepin-5-one]	100 to 1000	< 100
